Data reported in ChEMBL document CHEMBL2073880, “Heterologous expression of various P-glycoproteins in polarized epithelial cells induces directional transport of small (type 1) and bulky (type 2) cationic drugs” (J Pharmacol Exp Ther, 1998).

Key:
Format in all cases: functional, cell-based
[1] = biological target: T1, ATP-dependent translocase ABCB1 (Mus musculus, UniProt P06795); experiment: TP_TRANSPORTER: inhibition of TBuMA transepithelial transport (basal to apical)(TBuMA: 10 uM, Vinblastine: 2 uM) in Mdr1b-expressing LLC-PK1 cells; settings: pig, llc-pk1, 2 µM
[2] = biological target: T2, ATP-dependent translocase ABCB1 (Homo sapiens, UniProt P08183); experiment: TP_TRANSPORTER: inhibition of TBuMA transepithelial transport (basal to apical)(TBuMA: 10 uM, Vinblastine: 2 uM) in MDR1-expressing LLC-PK1 cells; settings: pig, llc-pk1, 2 µM
[3] = biological target: T3, ATP-dependent translocase ABCB1 (Mus musculus, UniProt P21447); experiment: TP_TRANSPORTER: transepithelial transport (basal to apical) in Mdr1a-expressing LLC-PK1 cells; settings: pig
[4] = biological target: T3, ATP-dependent translocase ABCB1; experiment: TP_TRANSPORTER: inhibition of TBuMA transepithelial transport (basal to apical)(TBuMA: 10 uM, Vinblastine: 2 uM) in Mdr1a-expressing LLC-PK1 cells; settings: pig, llc-pk1, 2 µM
[5] = biological target: T1, ATP-dependent translocase ABCB1; experiment: TP_TRANSPORTER: transepithelial transport (basal to apical) in Mdr1b-expressing LLC-PK1 cells; settings: pig
[6] = biological target: T2, ATP-dependent translocase ABCB1; experiment: TP_TRANSPORTER: transepithelial transport (basal to apical) in MDR1-expressing LLC-PK1 cells; settings: pig

T3 sequence (P21447 whole entry): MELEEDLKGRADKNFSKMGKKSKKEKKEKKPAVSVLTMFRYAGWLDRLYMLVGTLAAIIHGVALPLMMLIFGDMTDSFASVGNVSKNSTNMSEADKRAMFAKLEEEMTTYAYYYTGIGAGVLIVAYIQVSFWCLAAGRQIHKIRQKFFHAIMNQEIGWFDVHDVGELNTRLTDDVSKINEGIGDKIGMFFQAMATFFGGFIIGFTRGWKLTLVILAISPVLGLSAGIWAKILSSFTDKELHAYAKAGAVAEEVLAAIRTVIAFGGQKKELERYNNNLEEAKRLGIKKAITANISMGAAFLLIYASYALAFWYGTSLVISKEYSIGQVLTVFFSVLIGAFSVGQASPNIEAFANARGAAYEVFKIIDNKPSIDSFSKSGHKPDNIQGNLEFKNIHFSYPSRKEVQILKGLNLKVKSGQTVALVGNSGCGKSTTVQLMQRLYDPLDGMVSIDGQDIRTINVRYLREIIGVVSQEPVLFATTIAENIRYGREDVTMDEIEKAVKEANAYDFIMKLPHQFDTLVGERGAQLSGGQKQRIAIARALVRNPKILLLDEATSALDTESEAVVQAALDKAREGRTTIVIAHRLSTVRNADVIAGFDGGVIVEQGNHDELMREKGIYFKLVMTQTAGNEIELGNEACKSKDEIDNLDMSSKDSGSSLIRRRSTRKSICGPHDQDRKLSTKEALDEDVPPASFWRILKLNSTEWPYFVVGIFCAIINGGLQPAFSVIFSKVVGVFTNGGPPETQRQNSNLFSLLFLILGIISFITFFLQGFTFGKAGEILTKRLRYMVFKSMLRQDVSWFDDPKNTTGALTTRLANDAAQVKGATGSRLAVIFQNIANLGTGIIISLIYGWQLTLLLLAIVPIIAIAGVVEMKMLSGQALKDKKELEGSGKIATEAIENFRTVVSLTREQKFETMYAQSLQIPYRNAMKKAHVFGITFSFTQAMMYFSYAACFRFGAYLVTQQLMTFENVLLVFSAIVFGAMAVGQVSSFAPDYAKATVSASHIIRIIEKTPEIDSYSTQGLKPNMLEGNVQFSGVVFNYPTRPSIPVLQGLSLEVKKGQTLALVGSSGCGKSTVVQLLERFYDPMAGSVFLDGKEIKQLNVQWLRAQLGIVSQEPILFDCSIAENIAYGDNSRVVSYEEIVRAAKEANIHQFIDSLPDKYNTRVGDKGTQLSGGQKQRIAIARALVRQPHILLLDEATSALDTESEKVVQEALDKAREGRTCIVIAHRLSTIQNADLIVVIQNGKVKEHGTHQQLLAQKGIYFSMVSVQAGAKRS
T1 sequence (P06795 whole entry): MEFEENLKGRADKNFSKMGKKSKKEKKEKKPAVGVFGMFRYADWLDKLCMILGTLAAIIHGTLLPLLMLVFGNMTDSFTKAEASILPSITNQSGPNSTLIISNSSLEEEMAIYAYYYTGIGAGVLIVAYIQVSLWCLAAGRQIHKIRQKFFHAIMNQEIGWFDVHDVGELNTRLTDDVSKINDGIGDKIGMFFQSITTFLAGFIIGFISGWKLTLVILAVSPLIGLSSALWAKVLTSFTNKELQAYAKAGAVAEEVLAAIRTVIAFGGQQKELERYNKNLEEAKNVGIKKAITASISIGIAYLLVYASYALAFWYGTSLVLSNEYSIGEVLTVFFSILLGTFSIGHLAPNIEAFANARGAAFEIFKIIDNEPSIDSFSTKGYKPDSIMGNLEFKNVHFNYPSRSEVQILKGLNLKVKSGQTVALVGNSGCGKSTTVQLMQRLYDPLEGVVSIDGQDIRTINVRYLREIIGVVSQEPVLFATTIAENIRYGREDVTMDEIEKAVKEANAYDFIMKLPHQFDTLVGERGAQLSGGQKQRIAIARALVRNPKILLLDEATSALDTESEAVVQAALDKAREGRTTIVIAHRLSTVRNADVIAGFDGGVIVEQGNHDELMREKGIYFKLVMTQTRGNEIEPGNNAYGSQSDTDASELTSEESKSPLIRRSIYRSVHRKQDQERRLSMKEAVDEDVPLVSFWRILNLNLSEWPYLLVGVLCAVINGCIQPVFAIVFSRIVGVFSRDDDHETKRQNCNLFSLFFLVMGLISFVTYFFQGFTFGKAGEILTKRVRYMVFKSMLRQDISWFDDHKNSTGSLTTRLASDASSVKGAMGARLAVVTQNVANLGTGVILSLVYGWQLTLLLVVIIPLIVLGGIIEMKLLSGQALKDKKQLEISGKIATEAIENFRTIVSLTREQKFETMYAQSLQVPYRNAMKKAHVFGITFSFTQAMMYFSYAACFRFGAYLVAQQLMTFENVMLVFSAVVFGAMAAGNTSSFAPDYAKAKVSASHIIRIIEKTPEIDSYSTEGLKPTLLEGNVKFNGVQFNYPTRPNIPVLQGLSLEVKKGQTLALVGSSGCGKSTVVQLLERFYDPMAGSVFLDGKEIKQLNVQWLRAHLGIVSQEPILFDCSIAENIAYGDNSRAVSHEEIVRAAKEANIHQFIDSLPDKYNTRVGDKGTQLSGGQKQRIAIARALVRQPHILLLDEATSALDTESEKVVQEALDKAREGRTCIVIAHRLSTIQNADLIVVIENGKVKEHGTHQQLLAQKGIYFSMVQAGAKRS
T2 sequence (P08183 whole entry): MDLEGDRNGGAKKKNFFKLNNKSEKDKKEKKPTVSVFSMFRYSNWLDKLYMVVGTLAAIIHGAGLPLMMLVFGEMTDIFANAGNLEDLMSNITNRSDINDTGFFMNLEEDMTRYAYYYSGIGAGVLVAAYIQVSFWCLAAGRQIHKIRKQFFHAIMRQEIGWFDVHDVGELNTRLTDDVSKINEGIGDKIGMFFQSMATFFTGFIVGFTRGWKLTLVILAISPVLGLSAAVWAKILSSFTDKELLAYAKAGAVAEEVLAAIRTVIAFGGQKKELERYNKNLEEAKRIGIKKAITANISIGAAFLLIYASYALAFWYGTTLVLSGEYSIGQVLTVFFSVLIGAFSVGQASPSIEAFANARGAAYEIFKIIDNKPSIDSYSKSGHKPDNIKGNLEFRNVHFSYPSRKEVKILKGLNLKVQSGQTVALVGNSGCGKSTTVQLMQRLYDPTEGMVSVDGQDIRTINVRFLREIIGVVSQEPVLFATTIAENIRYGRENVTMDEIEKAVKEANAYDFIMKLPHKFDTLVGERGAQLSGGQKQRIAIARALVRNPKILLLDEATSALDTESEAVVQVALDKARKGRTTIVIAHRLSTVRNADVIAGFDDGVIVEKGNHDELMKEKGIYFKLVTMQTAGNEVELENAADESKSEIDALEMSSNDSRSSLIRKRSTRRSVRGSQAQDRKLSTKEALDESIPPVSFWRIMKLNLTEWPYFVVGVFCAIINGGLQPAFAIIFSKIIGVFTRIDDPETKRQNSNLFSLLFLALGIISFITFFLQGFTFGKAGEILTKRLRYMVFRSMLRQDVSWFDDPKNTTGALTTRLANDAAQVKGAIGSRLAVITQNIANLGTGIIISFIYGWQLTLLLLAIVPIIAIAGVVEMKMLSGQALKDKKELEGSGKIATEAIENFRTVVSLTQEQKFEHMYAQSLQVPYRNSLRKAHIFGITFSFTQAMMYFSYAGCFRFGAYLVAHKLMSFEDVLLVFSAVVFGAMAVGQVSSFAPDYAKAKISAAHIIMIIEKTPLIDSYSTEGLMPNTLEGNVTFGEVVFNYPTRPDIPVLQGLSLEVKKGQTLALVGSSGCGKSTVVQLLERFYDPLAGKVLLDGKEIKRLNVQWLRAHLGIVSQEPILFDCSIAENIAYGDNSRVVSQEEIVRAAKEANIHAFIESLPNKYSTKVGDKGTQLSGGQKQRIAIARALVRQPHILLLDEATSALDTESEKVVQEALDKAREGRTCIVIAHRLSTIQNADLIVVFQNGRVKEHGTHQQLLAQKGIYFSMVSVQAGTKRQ

Compound	Activity [1]	Activity [2]	Activity [3]	Activity [4]	Activity [5]	Activity [6]
CC[C@]1(O)C[C@@H]2CN(CCc3c([nH]c4ccccc34)[C@@](C(=O)OC)(c3cc4c(cc3OC)N(C)[C@H]3[C@@](O)(C(=O)OC)[C@H](OC(C)=O)[C@]5(CC)C=CCN6CC[C@]43[C@@H]65)C2)C1 [VINBLASTINE]	inhibitor [+]	inhibitor [+]	substrate [+]	inhibitor [+]	substrate [+]	
CC(=O)O[C@H]1C[C@@H]2CC[C@@H]3[C@H](CC[C@@]4(C)[C@H]3C[C@H]([N+]3(C)CCCCC3)[C@@H]4OC(C)=O)[C@@]2(C)C[C@@H]1N1CCCCC1 [VECURONIUM]			substrate [+]		substrate [+]	substrate [+]
CCCC[N+](C)(CCCC)CCCC [TRIBUTYLMETHYLAMMONIUM]			substrate [+]		substrate [+]	substrate [+]
CC[N+](C)(CC)CCNC(=O)c1ccc(N=[N+]=[N-])cc1.[I-] [AZIDOPROCAINAMIDE METHOIODIDE]			substrate [+]			substrate [+]
